Experimental data reported in PubChem BioAssay (NCI).
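Each compound was tested at five concentrations against cells in 96-well plates for 48 hours. GI50 is the concentration that inhibits growth by half. The concentration for full growth arrest is given as TGI.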

Legend:
Assay in all cases: NCI anticancer screen, dose series, 48 h
786-0 renal = test system: 786-0 renal
A498 renal = test system: A498 renal
A549 NSCLC = test system: A549 NSCLC
ACHN renal = test system: ACHN renal
BT-549 breast = test system: BT-549 breast
CAKI-1 renal = test system: CAKI-1 renal
CCRF-CEM leukemia = test system: CCRF-CEM leukemia
COLO 205 colon = test system: COLO 205 colon
DU-145 prostate = test system: DU-145 prostate
EKVX NSCLC = test system: EKVX NSCLC
HCC-2998 colon = test system: HCC-2998 colon
HCT-116 colon = test system: HCT-116 colon
HCT-15 colon = test system: HCT-15 colon
HOP-62 NSCLC = test system: HOP-62 NSCLC
HOP-92 NSCLC = test system: HOP-92 NSCLC
HS 578T breast = test system: HS 578T breast
HT29 colon = test system: HT29 colon
IGROV1 ovarian = test system: IGROV1 ovarian
KM12 colon = test system: KM12 colon
LOX IMVI melanoma = test system: LOX IMVI melanoma
M14 melanoma = test system: M14 melanoma
MALME-3M melanoma = test system: MALME-3M melanoma
MCF7 breast = test system: MCF7 breast
MDA-MB-231 breast = test system: MDA-MB-231 breast
MDA-MB-435 = test system: MDA-MB-435
NCI-H226 lung = test system: NCI-H226 lung
NCI-H460 lung = test system: NCI-H460 lung
NCI-H522 lung = test system: NCI-H522 lung
NCI/ADR-RES ovarian = test system: NCI/ADR-RES ovarian
OVCAR-3 ovarian = test system: OVCAR-3 ovarian
OVCAR-4 ovarian = test system: OVCAR-4 ovarian
OVCAR-5 ovarian = test system: OVCAR-5 ovarian
OVCAR-8 ovarian = test system: OVCAR-8 ovarian
PC-3 prostate = test system: PC-3 prostate
RPMI-8226 leukemia = test system: RPMI-8226 leukemia
RXF 393 renal = test system: RXF 393 renal
SF-268 CNS = test system: SF-268 CNS
SF-295 CNS = test system: SF-295 CNS
SF-539 CNS = test system: SF-539 CNS
SK-MEL-2 melanoma = test system: SK-MEL-2 melanoma
SK-MEL-28 melanoma = test system: SK-MEL-28 melanoma
SK-MEL-5 melanoma = test system: SK-MEL-5 melanoma
SK-OV-3 ovarian = test system: SK-OV-3 ovarian
SN12C renal = test system: SN12C renal
SNB-19 CNS = test system: SNB-19 CNS
SNB-75 CNS = test system: SNB-75 CNS
SW-620 colon = test system: SW-620 colon
T-47D breast = test system: T-47D breast
TK-10 renal = test system: TK-10 renal
U251 CNS = test system: U251 CNS
UACC-257 melanoma = test system: UACC-257 melanoma
UACC-62 melanoma = test system: UACC-62 melanoma
UO-31 renal = test system: UO-31 renal

## Clc1ccc2oc3c(NCCCn4ccnc4)c4ccccc4nc3c2c1
786-0 renal
  GI50: 16.3 µM
  TGI: > 100 µM
A498 renal
  GI50: > 100 µM
  TGI: > 100 µM
A549 NSCLC
  GI50: 34.6 µM
  TGI: > 100 µM
ACHN renal
  GI50: 4.84 µM
  TGI: > 100 µM
BT-549 breast
  GI50: 16.9 µM
  TGI: 51.4 µM
CAKI-1 renal
  GI50: 11.4 µM
  TGI: > 100 µM
CCRF-CEM leukemia
  GI50: 8.66 µM
  TGI: > 100 µM
COLO 205 colon
  GI50: 10.9 µM
  TGI: 37.7 µM
DU-145 prostate
  GI50: 23.3 µM
  TGI: > 100 µM
EKVX NSCLC
  GI50: 51.7 µM
  TGI: > 100 µM
HCC-2998 colon
  GI50: 12.7 µM
  TGI: > 100 µM
HCT-116 colon
  GI50: 4.48 µM
  TGI: 31.3 µM
HCT-15 colon
  GI50: 11.7 µM
  TGI: > 100 µM
HOP-62 NSCLC
  GI50: 16.6 µM
  TGI: > 100 µM
HOP-92 NSCLC
  GI50: 1.78 µM
  TGI: 22.7 µM
HS 578T breast
  GI50: 22.1 µM
  TGI: > 100 µM
HT29 colon
  GI50: 6.14 µM
  TGI: 23.6 µM
IGROV1 ovarian
  GI50: 21.9 µM
  TGI: > 100 µM
KM12 colon
  GI50: 15.4 µM
  TGI: > 100 µM
LOX IMVI melanoma
  GI50: 10.4 µM
  TGI: 39.1 µM
M14 melanoma
  GI50: 28 µM
  TGI: > 100 µM
MALME-3M melanoma
  GI50: 39.2 µM
  TGI: > 100 µM
MCF7 breast
  GI50: 16.1 µM
  TGI: > 100 µM
MDA-MB-231 breast
  GI50: 17.5 µM
  TGI: > 100 µM
MDA-MB-435
  GI50: 25.9 µM
  TGI: > 100 µM
NCI-H226 lung
  GI50: 26.8 µM
  TGI: > 100 µM
NCI-H460 lung
  GI50: 5.26 µM
  TGI: 21.4 µM
NCI-H522 lung
  GI50: 15 µM
  TGI: > 100 µM
NCI/ADR-RES ovarian
  GI50: 7.77 µM
  TGI: > 100 µM
OVCAR-3 ovarian
  GI50: 23.8 µM
  TGI: > 100 µM
OVCAR-4 ovarian
  GI50: 11.8 µM
  TGI: 41.2 µM
OVCAR-5 ovarian
  GI50: 24.9 µM
  TGI: > 100 µM
OVCAR-8 ovarian
  GI50: 12.7 µM
  TGI: > 100 µM
PC-3 prostate
  GI50: 24.9 µM
  TGI: > 100 µM
RPMI-8226 leukemia
  GI50: 16.5 µM
  TGI: 55.9 µM
RXF 393 renal
  GI50: 4.65 µM
  TGI: 23 µM
SF-268 CNS
  GI50: 15.2 µM
  TGI: > 100 µM
SF-295 CNS
  GI50: 17.9 µM
  TGI: 66.6 µM
SF-539 CNS
  GI50: 12.8 µM
  TGI: 28.2 µM
SK-MEL-2 melanoma
  GI50: > 100 µM
  TGI: > 100 µM
SK-MEL-28 melanoma
  GI50: 34.4 µM
  TGI: > 100 µM
SK-MEL-5 melanoma
  GI50: 80.6 µM
  TGI: > 100 µM
SK-OV-3 ovarian
  GI50: > 100 µM
  TGI: > 100 µM
SN12C renal
  GI50: 9.75 µM
  TGI: > 100 µM
SNB-19 CNS
  GI50: 27.8 µM
  TGI: > 100 µM
SNB-75 CNS
  GI50: 20.4 µM
  TGI: > 100 µM
SW-620 colon
  GI50: 5.13 µM
  TGI: > 100 µM
T-47D breast
  GI50: 36 µM
  TGI: > 100 µM
TK-10 renal
  GI50: 79 µM
  TGI: > 100 µM
U251 CNS
  GI50: 26.5 µM
  TGI: > 100 µM
UACC-257 melanoma
  GI50: 39.9 µM
  TGI: > 100 µM
UACC-62 melanoma
  GI50: 19.2 µM
  TGI: 45.5 µM
UO-31 renal
  GI50: 13.2 µM
  TGI: 67.4 µM
